Assay results taken from article PMC13043538, “In vitro thyroperoxidase inhibition assessment by LC-ICP-MS-based L-tyrosine iodination assay: comparison with Amplex Ultrared assay and its modifications” (Archives of Toxicology, 2026).

Target: T1, human TPO (Homo sapiens, UniProt P07202)
T1 construct: expressed in transfected cells; host or cells: HEK293T (HEK-TPOA7 clone), whole-cell lysate in 0.1% sodium deoxycholate
T1 sequence (P07202 19-933): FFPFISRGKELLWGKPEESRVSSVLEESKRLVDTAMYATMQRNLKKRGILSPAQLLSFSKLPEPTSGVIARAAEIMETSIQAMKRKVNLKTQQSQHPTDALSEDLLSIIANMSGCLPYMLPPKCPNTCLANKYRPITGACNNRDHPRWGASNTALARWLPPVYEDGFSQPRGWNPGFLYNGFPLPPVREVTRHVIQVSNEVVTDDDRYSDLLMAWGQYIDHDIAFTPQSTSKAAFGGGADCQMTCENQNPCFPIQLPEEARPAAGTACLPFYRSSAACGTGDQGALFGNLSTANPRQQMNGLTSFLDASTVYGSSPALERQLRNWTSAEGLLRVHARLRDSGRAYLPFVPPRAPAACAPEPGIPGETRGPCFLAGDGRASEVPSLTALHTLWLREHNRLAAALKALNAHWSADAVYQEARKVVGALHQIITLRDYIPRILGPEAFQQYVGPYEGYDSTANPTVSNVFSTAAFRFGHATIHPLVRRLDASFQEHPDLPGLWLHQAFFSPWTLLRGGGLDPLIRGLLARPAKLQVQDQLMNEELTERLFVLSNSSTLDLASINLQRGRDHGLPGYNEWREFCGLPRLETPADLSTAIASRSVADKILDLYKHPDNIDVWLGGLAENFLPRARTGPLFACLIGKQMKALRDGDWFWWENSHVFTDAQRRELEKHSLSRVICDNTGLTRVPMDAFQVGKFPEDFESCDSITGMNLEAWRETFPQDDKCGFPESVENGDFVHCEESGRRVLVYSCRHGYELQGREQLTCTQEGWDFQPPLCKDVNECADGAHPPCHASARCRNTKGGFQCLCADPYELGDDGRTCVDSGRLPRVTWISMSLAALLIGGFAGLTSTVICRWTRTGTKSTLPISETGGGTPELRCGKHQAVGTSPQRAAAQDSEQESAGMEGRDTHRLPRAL
Experiment: standard Amplex UltraRed (AUR) TPO assay, HEK-TPOA7 cell lysate, fluorescence
Assay type: biochemical
Conditions: no modification, read-out: IC50 (± standard deviation)
Procedure: Briefly, the cells were washed with phosphate-buffered saline (PBS), scraped, resuspended in PBS, and centrifuged for 5 min at 150 rcf. […] Lysed cells were centrifuged for 5 min at 12,000 rcf to extract the soluble protein fraction. The cell lysates were kept at − 80 °C for longer-term storage.

With Oc1cc(Cl)ccc1Oc1ccc(Cl)cc1Cl [TCS, Triclosan] the IC50 was 199 µM.
